In series [1] the test system is IL-2 stimulated STAT5 phosphorylation in CD4+ T cells isolated from murine splenocytes. As to the kind of experiment: Inhibition of IL-2 stimulated pSTAT5 in CD4+ T cells isolated from murine splenocytes. Format: cell-based. The settings on record: Mus musculus, IL-2 7 ng/ml, read-out: pIC50, inhibition of IL-2 stimulated pSTAT5 (converted). As for the experimental part: Assay 3: Inhibition of IL-2 Stimulated pSTAT5 in CD4+ T Cells Isolated from Murine Splenocytes
The potency of test compounds for inhibition of interleukin-2 (IL-2) stimulated STAT5 phosphorylation was measured in the CD4+ T cells isolated from murine splenocytes using AlphaLisa. Because IL-2 signals through JAK3, this assay provides a measure of JAK3 cellular potency in mouse.
Phosphorylated STAT5 was measured via the AlphaLISA SureFire Ultra pSTAT5 (Tyr694/699) kit (PerkinElmer).
CD4+ T cells were isolated from murine splenocytes via negative selection on a magnetic column (Miltnyi Biotec) and re-suspended in assay media (phenol red-free DMEM (Life Technologies) supplemented with 10% FBS (ATCC)). Cells were seeded at 50,000 cells/well in assay media (2 μL/well). Compounds were serially diluted in DMSO and diluted to 2× final concentration in assay media. Compound was added (4 μl/well) and the cells incubated at 37° C., 5% CO2 for 1 hour, followed by the addition of IL-2 (R&D Systems; final concentration 7 ng/ml) in pre-warmed assay media (2 μL) for 30 minutes. After cytokine stimulation, cells were lysed with 2 μl of 5× AlphaLisa Lysis Buffer (PerkinElmer). The lysate was shaken at 900 rpm for 10 minutes at room temperature (RT). Phosphorylated STAT5 was measured via the pSTAT5 AlphaLisa kit (PerkinElmer). Freshly prepared acceptor bead mixture was dispensed onto lysate (5 ul) under green filtered <100 lux light. Plates were shaken at 900 rpm for 2 mins, briefly spun down, and incubated for 2 hrs at RT in the dark. Donor beads were dispensed (5 μl) under green filtered <100 lux light. Plates were shaken at 900 rpm for 2 mins, briefly spun down, and incubated overnight at RT in the dark. Luminescence was measured with excitation at 689 nm and emission at 570 nm using an EnVision plate reader (PerkinElmer) under green filtered <100 lux light.
To determine the inhibitory potency of test compounds in response to IL-2, the average emission intensity of beads bound to pSTAT5 was measured in primary CD4+ T cells isolated from murine splenocytes. IC50 values were determined from analysis of the inhibition curves of signal intensity vs compound concentration. Data are expressed as pIC50 (negative decadic logarithm IC50) values (mean standard deviation).

In series [2] the target is JAK3 (Homo sapiens (Human), UniProt P52333). As to the kind of experiment: Biochemical JAK3 kinase assay (LanthaScreen). The settings on record: for JAK3 (pKi)-JAK1 (pKi): selectivity, difference of pKi values. As for the experimental part: (§1) Assay 1: Biochemical JAK and Tyk2 Kinase Assays
(§2) A panel of four LanthaScreen JAK biochemical assays (JAK1, 2, 3 and Tyk2) were carried in a common kinase reaction buffer (50 mM HEPES, pH 7.5, 0.01% Brij-35, 10 mM MgCl2, and 1 mM EGTA). Recombinant GST-tagged JAK enzymes and a GFP-tagged STAT1 peptide substrate were obtained from Life Technologies.
Serially or discretely diluted compounds were pre-incubated with each of the four JAK enzymes and the substrate in white 384-well microplates (Corning) at ambient temperature for 1 h. ATP was subsequently added to initiate the kinase reactions in 10 μL total volume, with 1% DMSO. […] Kinase reactions were allowed to proceed for 1 hour at ambient temperature before a 10 μL preparation of EDTA (10 mM final concentration) and Tb-anti-pSTAT1 (pTyr701) antibody (Life Technologies, 2 nM final concentration) in TR-FRET dilution buffer (Life Technologies) was added. The plates were allowed to incubate at ambient temperature for 1 h before being read on the EnVision reader (Perkin Elmer). Emission ratio signals (520 nm/495 nm) were recorded and utilized to calculate the percent inhibition values based on DMSO and background controls.
(§3) For dose-response analysis, percent inhibition data were plotted vs. compound concentrations, and IC50 values were determined from a 4-parameter robust fit model with the Prism software (GraphPad Software). Results were expressed as pIC50 (negative logarithm of IC50) and subsequently converted to pKi (negative logarithm of dissociation constant, Ki) using the Cheng-Prusoff equation.
For orientation: Time-resolved FRET reads energy transfer from a long-lived donor to a nearby acceptor.

In series [3] the target is JAK1 (Homo sapiens (Human), UniProt P23458). As to the kind of experiment: Biochemical JAK1 kinase assay (LanthaScreen). Conditions: 1 h pre-incubation, ATP at Km 25 μM; pKi from pIC50 by Cheng-Prusoff. As for the experimental part: as §1, §2
Serially or discretely diluted compounds were pre-incubated with each of the four JAK enzymes and the substrate in white 384-well microplates (Corning) at ambient temperature for 1 h. ATP was subsequently added to initiate the kinase reactions in 10 μL total volume, with 1% DMSO. […] The plates were allowed to incubate at ambient temperature for 1 h before being read on the EnVision reader (Perkin Elmer). Emission ratio signals (520 nm/495 nm) were recorded and utilized to calculate the percent inhibition values based on DMSO and background controls.
as §3

Series [4] in a line: Colon and plasma mouse pharmacokinetics. Format: in vivo. Conditions: male Balb/c mice, 10 mg/kg PO, 0.5, 2 and 6 h. As for the experimental part:
Assay 6: Colon and Plasma Mouse Pharmacokinetics
6 male Balb/c mice were administered 10 mg/kg of compound in 1% HPMC+0.1% Tween-80 by PO administration. At 0.5, 2 and 6 hours after dose administration, animals were anesthetized, and terminal blood samples were collected by cardiac puncture, followed by collection of colon contents and colon tissue.
Blood samples were collected into K2EDTA and stored on wet ice until processed to plasma by centrifugation (12,000 rpm at 4° C.). Plasma samples were transferred to cluster tubes and placed on dry ice prior to freezer storage. The colon contents from each animal were collected at each terminal blood collection time point. The colon tissues were flushed with saline and patted dry. The colon and colon content tissues were homogenized using sterile water containing 0.1% formic acid 9:1 (water:tissue, v/w). […] All samples were analyzed using LC/MS/MS against analytical standards.
The composite pharmacokinetic parameters of the compounds were determined by non-compartmental analysis using Phoenix WinNonlin Version 6 (Certara, St. Louis, Mo.) and using mean values from 2 animals/time point. For plasma concentrations below the quantification limit (BQL), the lowest concentration measurable or the BLOQ (below limit of quantification) was used.
A colon to plasma ratio was determined as the ratio of the colon AUC to the plasma AUC.

The test system of series [5] is Caco-2 cell monolayers. As to the kind of experiment: Caco-2 permeation assay. Conditions: 5 μM, A to B, + Verapamil 25 μM; unit taken from the thresholds in the same block.
Method: The Caco-2 permeation assay was performed to model the ability of test compounds to pass through the intestine and get into the blood stream after oral administration. The rate at which test compounds in solution permeate a cell monolayer designed to mimic the tight junction of human small intestinal monolayers was determined.
CacoReady 24-well transwell plates were obtained from ADMEcell (Alameda, Calif.). The compounds were evaluated at a concentration of 5 μM from 10 mM DMSO stock solutions in duplicate (n=2). The passive permeability of the compounds tested was evaluated using Caco-2 cell monolayers along with Verapamil (25 μM) to inhibit P-gp transport proteins in the apical to basolateral (A-B) direction. The experiment was conducted in a 37° C., 5% CO2 incubator. Caco-2 culture media consisted of standard filtered DMEM, FCS 10%, L-Glutamine 1% and PenStrep 1%. Basal assay plate was prepared by adding 750 μL of transport buffer to A-B wells. A CacoReady™ plate was prepared by removing the Caco-2 media from the apical wells and replacing with fresh transport media (200 μL repeated for a total of 3 washes). Blank media (200 μL) was then replaced with diluted compound for A-B wells. […] The permeation coefficient (Kp, mean A to B+Verapamil Papparent) in cm/sec was calculated as dQ (flux)/(dt×Area×concentration). […]

A value given as a limit tells only on which side of the number the result lay.

Chain of JAK3 (P52333 whole entry): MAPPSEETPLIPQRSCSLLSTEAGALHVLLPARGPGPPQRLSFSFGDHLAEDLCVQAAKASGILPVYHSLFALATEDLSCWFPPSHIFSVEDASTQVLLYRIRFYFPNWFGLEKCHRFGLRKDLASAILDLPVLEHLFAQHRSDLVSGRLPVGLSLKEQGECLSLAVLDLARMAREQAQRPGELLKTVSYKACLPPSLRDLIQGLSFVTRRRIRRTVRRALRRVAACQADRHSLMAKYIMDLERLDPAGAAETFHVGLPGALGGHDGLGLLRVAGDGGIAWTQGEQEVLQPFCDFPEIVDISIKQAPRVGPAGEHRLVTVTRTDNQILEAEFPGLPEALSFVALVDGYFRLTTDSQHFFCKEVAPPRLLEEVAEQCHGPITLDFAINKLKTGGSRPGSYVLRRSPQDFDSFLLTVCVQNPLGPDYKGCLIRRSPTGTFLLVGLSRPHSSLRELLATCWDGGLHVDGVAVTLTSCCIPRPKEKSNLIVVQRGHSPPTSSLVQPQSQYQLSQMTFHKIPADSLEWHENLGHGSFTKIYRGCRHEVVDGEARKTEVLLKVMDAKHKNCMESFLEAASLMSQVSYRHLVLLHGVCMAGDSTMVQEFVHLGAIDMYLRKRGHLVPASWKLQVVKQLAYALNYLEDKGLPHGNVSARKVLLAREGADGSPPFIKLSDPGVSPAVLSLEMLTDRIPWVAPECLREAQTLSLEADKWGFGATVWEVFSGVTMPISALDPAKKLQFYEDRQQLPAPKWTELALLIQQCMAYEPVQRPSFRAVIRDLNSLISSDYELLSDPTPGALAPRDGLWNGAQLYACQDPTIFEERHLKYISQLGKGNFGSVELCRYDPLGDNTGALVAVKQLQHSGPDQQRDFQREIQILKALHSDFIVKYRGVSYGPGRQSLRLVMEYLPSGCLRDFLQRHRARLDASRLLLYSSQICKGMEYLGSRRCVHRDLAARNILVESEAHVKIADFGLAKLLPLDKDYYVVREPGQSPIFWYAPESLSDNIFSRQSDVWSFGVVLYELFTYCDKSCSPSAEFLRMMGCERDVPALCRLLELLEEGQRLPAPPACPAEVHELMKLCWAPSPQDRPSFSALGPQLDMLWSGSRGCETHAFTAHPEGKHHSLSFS
Chain of JAK1 (P23458 whole entry): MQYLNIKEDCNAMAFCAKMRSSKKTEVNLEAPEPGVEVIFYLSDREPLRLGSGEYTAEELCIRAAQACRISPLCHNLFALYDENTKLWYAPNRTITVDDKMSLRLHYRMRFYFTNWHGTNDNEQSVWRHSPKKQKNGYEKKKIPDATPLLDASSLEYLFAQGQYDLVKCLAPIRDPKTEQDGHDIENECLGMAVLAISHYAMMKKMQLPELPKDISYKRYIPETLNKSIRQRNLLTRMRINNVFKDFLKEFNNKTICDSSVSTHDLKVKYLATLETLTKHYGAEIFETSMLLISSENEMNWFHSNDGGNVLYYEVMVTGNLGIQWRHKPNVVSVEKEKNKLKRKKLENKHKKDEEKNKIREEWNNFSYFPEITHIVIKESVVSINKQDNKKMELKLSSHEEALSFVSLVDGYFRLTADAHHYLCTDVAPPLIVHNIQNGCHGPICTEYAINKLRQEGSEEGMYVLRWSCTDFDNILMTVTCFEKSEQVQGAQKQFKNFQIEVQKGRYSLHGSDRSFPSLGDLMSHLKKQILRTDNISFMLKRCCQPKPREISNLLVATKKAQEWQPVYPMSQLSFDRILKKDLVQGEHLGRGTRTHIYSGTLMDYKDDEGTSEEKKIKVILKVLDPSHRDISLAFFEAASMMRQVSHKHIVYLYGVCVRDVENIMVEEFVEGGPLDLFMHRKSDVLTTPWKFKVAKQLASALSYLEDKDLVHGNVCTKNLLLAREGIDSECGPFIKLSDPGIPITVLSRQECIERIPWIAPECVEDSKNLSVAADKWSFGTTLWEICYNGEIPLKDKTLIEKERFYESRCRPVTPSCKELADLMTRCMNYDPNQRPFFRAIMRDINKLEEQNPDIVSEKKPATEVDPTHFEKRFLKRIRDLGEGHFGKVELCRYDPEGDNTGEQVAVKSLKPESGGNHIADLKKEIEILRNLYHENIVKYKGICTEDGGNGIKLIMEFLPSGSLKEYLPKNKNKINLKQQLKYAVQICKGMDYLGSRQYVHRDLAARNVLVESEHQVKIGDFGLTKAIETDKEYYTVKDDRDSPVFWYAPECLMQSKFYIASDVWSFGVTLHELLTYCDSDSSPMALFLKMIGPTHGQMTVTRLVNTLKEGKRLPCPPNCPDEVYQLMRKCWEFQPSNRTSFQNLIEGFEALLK

Consider `C=CC(=O)N1CC(COc2cc(-c3ccc(O)c(F)c3F)cn3cncc23)C1` [Example 8, 1-(3-(((6-(2,3-difluoro-4-hydroxyphenyl)imidazo[1,5-a]pyridin-8-yl)oxy)methyl)azetidin-1-yl)prop-2-en-1-one], for which the IC50 in series [1] is less than 1000 nM. Also, the “JAK3 (pKi)-JAK1 (pKi)” value in series [2] is “A (a value of 3 or above)”.

Turning to `C=CC(=O)N1CC(COc2cc(-c3cc(F)c(O)cc3CC)cn3cncc23)C1` [Example 13, 1-(3-(((6-(2-ethyl-5-fluoro-4-hydroxyphenyl)imidazo[1,5-a]pyridin-8-yl)oxy)methyl)azetidin-1-yl)prop-2-en-1-one], the IC50 in series [1] is less than 1000 nM. Further, the “JAK3 (pKi)-JAK1 (pKi)” value in series [2] is listed as “A (a value of 3 or above)”.

For the compound `C=CC(=O)N1CC(COc2cc(-c3ccc(O)c(Cl)c3)cn3cncc23)C1` [Example 12, 1-(3-(((6-(3-chloro-4-hydroxyphenyl)imidazo[1,5-a]pyridin-8-yl)oxy)methyl)azetidin-1-yl)prop-2-en-1-one], in series [1], the IC50 is less than 1000 nM. The “JAK3 (pKi)-JAK1 (pKi)” value in series [2] was “A (a value of 3 or above)”.

Regarding `C=CC(=O)N1CC(COc2cc(-c3cc(F)c(O)c(Cl)c3)cn3cncc23)C1` [Example 31], the IC50 in series [1] was less than 1000 nM. In series [2], the “JAK3 (pKi)-JAK1 (pKi)” value is “A (a value of 3 or above)”.

With `C=CC(=O)N1CC(COc2cc(-c3ccc(O)c(F)c3)cn3cncc23)C1` [Example 20], the IC50 in series [1] is less than 1000 nM. The “JAK3 (pKi)-JAK1 (pKi)” value in series [2] is on record as “A (a value of 3 or above)”.

Regarding `C=CC(=O)N1CCC(N(C)c2cc(-c3ccc(O)cc3)cn3cncc23)CC1` [Example 17], the “JAK 1 (pKi)” value in series [3] is “E (a pKi value of 7 or below (Ki of 100 nM or above))”. The Ki in series [2] (1 h pre-incubation, ATP at Km 1.6 μM, pKi from pIC50 by Cheng-Prusoff, read-out: JAK 3 (pKi) (converted)) is 1 to 10 nM. The “JAK3 (pKi)-JAK1 (pKi)” value in series [2] is reported as “B (a value of 2.3 to 3)”.

With `C=CC(=O)N1CC(COc2cc(-c3ccc(O)cc3)cn3cncc23)C1` [Example 11, 1-(3-(((6-(4-hydroxyphenyl)imidazo[1,5-a]pyridin-8-yl)oxy)methyl)azetidin-1-yl)prop-2-en-1-one], the IC50 in series [1] is less than 1000 nM. The “JAK3 (pKi)-JAK1 (pKi)” value in series [2] is given as “A (a value of 3 or above)”.

For the compound `C=CC(=O)N1CC(COc2cc(-c3ccc(O)c(C)c3)cn3cncc23)C1` [Example 34], in series [1], the IC50 was less than 1000 nM. For the same compound, in series [2], the “JAK3 (pKi)-JAK1 (pKi)” value is recorded as “A (a value of 3 or above)”.

Consider `C=CC(=O)N1CC[C@@H](Oc2cc(-c3ccc(O)cc3)cn3cncc23)C[C@H]1C` [Example 15, 1-((2R,4R)-4-((6-(4-hydroxyphenyl)imidazo[1,5-a]pyridin-8-yl)oxy)-2-methylpiperidin-1-yl)prop-2-en-1-one], for which the IC50 in series [1] is less than 1000 nM. Also, the “JAK3 (pKi)-JAK1 (pKi)” value in series [2] is listed as “A (a value of 3 or above)”.

For the compound `C=CC(=O)N1CC(COc2cc(-c3cc(Cl)c(O)c(OC)c3)cn3cncc23)C1` [Example 9, 1-(3-(((6-(3-chloro-4-hydroxy-5-methoxyphenyl)imidazo[1,5-a]pyridin-8-yl)oxy)methyl)azetidin-1-yl)prop-2-en-1-one], the IC50 in series [1] is less than 1000 nM. Further, the “JAK3 (pKi)-JAK1 (pKi)” value in series [2] is “A (a value of 3 or above)”.

Turning to `C=CC(=O)N1CC(COc2cc(-c3c(F)cc(O)cc3F)cn3cncc23)C1` [Example 7, 1-(3-(((6-(2,6-difluoro-4-hydroxyphenyl)imidazo[1,5-a]pyridin-8-yl)oxy)methyl)azetidin-1-yl)prop-2-en-1-one], the IC50 in series [1] is less than 1000 nM. In addition, the “JAK3 (pKi)-JAK1 (pKi)” value in series [2] is “A (a value of 3 or above)”.

As for `C=CC(=O)N1C[C@H](Nc2ncnc3[nH]ccc23)CC[C@@H]1C` [PF-06651600, 2-propen-1-one, 1-[(2S,5R)-2-methyl-5-(7H-pyrrolo[2,3-d]pyrimidin-4-ylamino)-1-piperidinyl]], the “colon to plasma ratio (colon AUC to plasma AUC)” value in series [4] is on record as 2.8. Besides, the Kp value in series [5] amounted to 25 ×10⁻⁶ cm/s.

For the compound `CCc1cc(O)c(F)cc1-c1cc(OCC2CN(C(=O)/C=C/CN(C)C)C2)c2cncn2c1` [Example 24], in series [1], the IC50 was less than 1000 nM. Besides, the “JAK3 (pKi)-JAK1 (pKi)” value in series [2] was “A (a value of 3 or above)”.

Turning to `C=CC(=O)N1CC(C(C)(C)Oc2cc(-c3ccc(O)cc3)cn3cncc23)C1` [Example 28], the IC50 in series [1] is less than 1000 nM. The “JAK3 (pKi)-JAK1 (pKi)” value in series [2] was “A (a value of 3 or above)”.

The values are drawn from US11339160B2, “Imidazole and triazole containing bicyclic compounds as JAK inhibitors” (THERAVANCE BIOPHARMA R&D IP, LLC, priority 2019, dated 2022).
